TGI and GI50 data for 16 compounds are collected here from PubChem BioAssay (NCI).

Structures are written as SMILES.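 Cultured in 96-well plates, cells were exposed to test compound for 48 hours across five concentrations. Here, GI50 denotes the concentration required for 50% inhibition of growth. Definition used: TGI = concentration required for complete inhibition of growth.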 A value given as a limit tells only on which side of the number the result lay.

Among the test systems are MALME-3M melanoma; 786-0 renal; NCI-H23 lung; SNB-19 CNS; UACC-62 melanoma; TK-10 renal; OVCAR-4 ovarian; SF-268 CNS; DU-145 prostate; T-47D breast.
Assay in all cases: NCI-60 cell line screen, 48 h

`O=C(Oc1ccc2c(-c3ccccc3)c(C(=O)Nc3ccc(Cl)cc3)c(=O)oc2c1)c1ccccc1`: the TGI in the test with MALME-3M melanoma, with 786-0 renal, with NCI-H23 lung, with SNB-19 CNS, in the test with UACC-62 melanoma and with TK-10 renal was above 100 µM in each case.
On to `NC(CCc1ncc(-c2ccccc2)s1)C(=O)O` (configuration not stated), for which the TGI in the test on MALME-3M melanoma, in the test with 786-0 renal, in the test with NCI-H23 lung, with SNB-19 CNS, in the test with UACC-62 melanoma and with TK-10 renal was above 100 µM in each case.
On to `CC(C)CN1CC(C)C(=O)NC1=O` (configuration not stated), for which the TGI in the test with MALME-3M melanoma, with 786-0 renal, with NCI-H23 lung, with SNB-19 CNS, in the test on OVCAR-4 ovarian and in the test on UACC-62 melanoma was above 100 µM in each case. The TGI in the test on TK-10 renal and in the test with SF-268 CNS was above 100 µM throughout.
As to `OCC(O)COc1c(Cl)cc(Cl)cc1Cl` (configuration not stated), the TGI in the test with MALME-3M melanoma is above 100 µM; in the test with 786-0 renal, above 76.5 µM; with NCI-H23 lung, above 100 µM; in the test with SNB-19 CNS, above 100 µM; in the test with OVCAR-4 ovarian it was above 100 µM; in the test on UACC-62 melanoma, above 100 µM. The TGI in the test on TK-10 renal and with SF-268 CNS was above 100 µM in each case.
With `CCOC(=O)C(=O)Nc1ccccc1OCC`, the TGI with MALME-3M melanoma, in the test on 786-0 renal, in the test on NCI-H23 lung, in the test with SNB-19 CNS, in the test with OVCAR-4 ovarian and in the test on UACC-62 melanoma was above 100 µM throughout. Further, the TGI with TK-10 renal and in the test on SF-268 CNS was above 100 µM throughout.
On to `CN1C(=O)CCC1c1ccc2c(c1)oc(=O)n2C` (configuration not stated), for which the TGI in the test on MALME-3M melanoma, with 786-0 renal, with NCI-H23 lung, in the test with SNB-19 CNS, with OVCAR-4 ovarian and in the test with UACC-62 melanoma was above 100 µM each time. Besides, the TGI in the test on TK-10 renal and in the test with SF-268 CNS was above 100 µM throughout.
As to `O=C(Cc1csc2nc(-c3ccc(Br)cc3)cn12)N/N=C/c1ccc(Cl)cc1Cl`, the GI50 in the test on 786-0 renal is 25.8 µM; with NCI-H23 lung it was 25.6 µM; in the test with SNB-19 CNS, 94.6 µM; with OVCAR-4 ovarian it was 37.3 µM; with UACC-62 melanoma, 23.3 µM; with DU-145 prostate, 26.3 µM. Further, the GI50 in the test on T-47D breast and with SF-268 CNS was above 100 µM in each case. In addition, the TGI with 786-0 renal is 73.4 µM; with NCI-H23 lung, 56.4 µM; in the test with SNB-19 CNS it was above 100 µM; in the test on OVCAR-4 ovarian, above 100 µM; in the test on UACC-62 melanoma it was 67.7 µM; with DU-145 prostate, above 100 µM. In addition, the TGI with T-47D breast and in the test with SF-268 CNS was above 100 µM throughout.
As to `O=C(/C=C/c1ccccc1O)c1cccc2ccccc12`, the TGI with MALME-3M melanoma, in the test on 786-0 renal, in the test with NCI-H23 lung, in the test with SNB-19 CNS, with OVCAR-4 ovarian and in the test with UACC-62 melanoma was above 100 µM throughout. Moreover, the TGI in the test with TK-10 renal and with SF-268 CNS was above 100 µM each time.
Consider `CN(C)C(=S)/N=c1\ss/c(=N\C(=S)N(C)C)n1Cc1ccco1`, for which the TGI in the test with MALME-3M melanoma, with 786-0 renal, with SNB-19 CNS, in the test on OVCAR-4 ovarian, with UACC-62 melanoma and in the test with TK-10 renal was above 100 µM throughout. Also, the TGI in the test with SF-268 CNS is above 100 µM.
Turning to `Nc1c(C(=O)NC23CC4CC(CC(C4)C2)C3)[n+]([O-])c2ccccc2[n+]1[O-]`, the TGI in the test on MALME-3M melanoma, in the test on 786-0 renal, in the test on NCI-H23 lung, in the test on SNB-19 CNS, in the test with OVCAR-4 ovarian and in the test on UACC-62 melanoma was above 100 µM in each case. Moreover, the TGI in the test with TK-10 renal and with SF-268 CNS was above 100 µM throughout.
Take `O=C1CCNC(=O)NC1`: the TGI in the test on MALME-3M melanoma, in the test on 786-0 renal, in the test on SNB-19 CNS, with OVCAR-4 ovarian, in the test on UACC-62 melanoma and in the test on TK-10 renal was above 100 µM each time. The compound also displayed a TGI in the test with SF-268 CNS above 100 µM.
On to `Cn1nc2ccc3nccc(NCCNCCO)c3c2n1`, for which the TGI in the test with MALME-3M melanoma, in the test with 786-0 renal, in the test with NCI-H23 lung, in the test on SNB-19 CNS, with OVCAR-4 ovarian and in the test on UACC-62 melanoma was above 100 µM throughout. In addition, the TGI with TK-10 renal and with SF-268 CNS was above 100 µM throughout.
`Cc1cccc(C(C)C)c1NC(=O)CCl`: the TGI with MALME-3M melanoma was above 100 µM; in the test on 786-0 renal it was above 100 µM; in the test with NCI-H23 lung it was 80 µM; in the test on SNB-19 CNS it was above 100 µM; in the test with OVCAR-4 ovarian, 76.6 µM; in the test with UACC-62 melanoma, 63.2 µM. In the test with SF-268 CNS, the TGI was above 100 µM.
`CCOC(OCC)C(CC)[Se]c1ccccc1` (configuration not stated): the TGI with MALME-3M melanoma was above 100 µM; with 786-0 renal it was above 100 µM; with NCI-H23 lung it was 73.9 µM; in the test on SNB-19 CNS it was above 100 µM; in the test on OVCAR-4 ovarian, above 100 µM; with UACC-62 melanoma, above 100 µM. Also, the TGI in the test on TK-10 renal and in the test with SF-268 CNS was above 100 µM throughout.
Turning to `COc1cc(C(O)C(=O)c2cnc3cc([N+](=O)[O-])ccc3n2)ccc1O` (configuration not stated), the TGI in the test on MALME-3M melanoma, in the test with 786-0 renal, in the test with SNB-19 CNS, in the test on OVCAR-4 ovarian, in the test with UACC-62 melanoma and in the test on TK-10 renal was above 100 µM throughout.
`COc1ccc(N=Nc2c(-c3ccccc3)nn(C(=O)CC(=O)Nc3ccccc3Cl)c2-c2ccccc2)cc1`: the TGI with MALME-3M melanoma, in the test with 786-0 renal, in the test on NCI-H23 lung, in the test on SNB-19 CNS, in the test on OVCAR-4 ovarian and with UACC-62 melanoma was above 100 µM in each case. For the same compound, the TGI with TK-10 renal and in the test with SF-268 CNS was above 100 µM in each case.
